Results as given in patent US10857201B2, “NNIF and nNIF-related peptides and related methods” (UNIVERSITY OF UTAH RESEARCH FOUNDATION, priority 2016, dated 2020).
Entries after “also recorded” stand apart in the source; their conditions may differ.

What was measured:
[1] = test system: neutrophil extracellular trap (NET) formation; test: In vitro NET formation by stimulated human PMNs (live cell imaging, NET-associated histone H3 release); assay type: cell-based; conditions: for NET formation triggered by LPS: adult PMNs preincubated with agent, LPS 100 ng/mL, 1 hour
Method: Qualitative assessment of NET formation was performed as previously reported (see Yost C C, et al., Blood. 2009; 113 (25):6419-27 and McInturff A M, et al., Blood. 2012; 120 (15):3118-25). Briefly, primary PMNs isolated from preterm infants, healthy term infants, and healthy adults (2×10^6 cells/mL) were incubated with control buffer or stimulated with indicated agonists or bacteria for 1 hour at 37° C. in 5% CO2/95% air on glass coverslips coated with poly-L-lysine. For selected experiments, primary PMNs were pre-incubated with autologous plasma, cord blood plasma, nNIF (0.2-70 nM), CRISPP (0.2-70 nM), nNIF-SCR (1 nM), or CRISPP-SCR (1 nM) for one hour prior to stimulation. After pre-incubation and/or stimulation, PMNs were gently washed with PBS and incubated with a mixture of cell permeable (SYTO® Green, MOLECULAR PROBES®) and impermeable (SYTOX® Orange, MOLECULAR PROBES®) DNA fluorescent dyes. Confocal microscopy was accomplished using a FV1000 IX81 confocal microscope and FLUOVIEW™ software (OLYMPUS™). Both 20× and 60× objectives were used. Z-series images were obtained at a step size of 1 μm over a range of 20 μm for each field. FLUOVIEW™ and ADOBE™ PHOTOSHOP™ CS2 software was used for image processing.
Using BSL 2 safety protocols, primary PMNs isolated from healthy adults (2×10^6 cells/mL) were incubated with mock infection buffer or live dengue virus (M010.05) as for live cell imaging. After a 1-hour incubation, the infected PMNs were fixed with 2% p-FA for 10 minutes prior to incubation with fluorescently-labeled, cell-permeable and cell-impermeable DNA dyes, and imaged as for live cell imaging using confocal microscopy.
NET-associated histone H3 content was determined as previously described (see McInturff A M, et al., Blood. 2012; 120 (15):3118-25). After live cell imaging of control and stimulated primary PMNs (2×10^6/mL; various agonists), the cells were incubated with PBS containing DNase (40 U/mL) for 15 minutes at room temperature to break down and release NETs formed in response to stimulation. The supernatant was gently removed and centrifuged at 420×g for 5 minutes. The cell-free supernatant was then mixed 3:1 with 4× Laemmli buffer prior to western blotting. A polyclonal primary antibody against human histone H3 protein (CELL SIGNALING®) and infrared-conjugated secondary antibodies (LI-COR®) were used. Imaging and densitometry were performed on the ODYSSEY® infrared imaging system)(LI-COR®). This assay was previously validated as a surrogate for NET formation under in vitro conditions (see McInturff A M, et al., Blood. 2012; 120 (15):3118-25) as employed in the present studies.
Without being bound by any specific theory, it was hypothesized that placentally expressed HTRA1, a serine protease, regulates the formation of NET-inhibitory peptides through cleavage of AAT. To test this hypothesis, term and preterm placenta were assessed for HTRA1 expression via western blotting. HTRA1 and AAT plasma expression from term and preterm infants and adults were determined by ELISA. Bioactive (0.5 μg) or placental eluted HTRA1 was incubated with AAT (8 μM) for 18 hours at 37° C. Carboxy-terminus fragments of AAT were detected using western blotting and mass spectrometry. The reaction products were incubated for 1 hour with PMNs isolated from healthy adults prior to LPS stimulation (100 ng/mL) and assessed for NET formation using live cell imaging. Reactive oxygen species were assessed using flow cytometry, chemotaxis using a modified Boyden chamber assay, and bacterial killing using E. coli.

[2] = test system: nuclear chromatin decondensation in PMNs; test: Nuclear decondensation assay in PMA-treated neutrophils; assay type: cell-based, human; conditions: PMA 20 nM; peptides 1 nM, Cl-amidine 10 μM, sivelestat 200 nM
Method: FIG. 7B is a graph depicting nuclear areas that were measured (n=4) using IMAGEJ™ software (mean nuclear pixel area per cell±SEM). Paired Student's t test, *P<0.05, § P=0.057.
FIG. 12A depicts nuclear decondensation (white arrowheads and magnified image) that were assessed as in FIGS. 7A-7E after a 1 hour preincubation in medium alone, with neutrophil elastase (NE) inhibitor sivelestat (SIVL; 200 nM), or with CRISPP or CRISPP-SCR (both 1 nM) followed by treatment with PMA (20 nM) and an additional 1 hour incubation (n=3). Green fluorescence=nuclear DNA, (60× magnification, scale bar=20 μm). Nuclear area was quantified using IMAGEJ™ software (nuclear pixel area per cell±SEM). One way ANOVA with Tukey's post hoc testing; **P<0.01, ***P<0.001.
Nuclear decondensation was identified as described (see Papayannopoulos V, et al., J Cell Biol. 2010; 191 (3):677-91). Five randomly selected high-power visual fields per sample were captured via confocal microscopy and analyzed for nuclear area using the cell-permeable, fluorescent DNA dye SYTO® Green. The nuclear pixel areas of >100 individual cells per high-power field were determined using IMAGEJ™ software (NIH).

neutrophil elastase (NE) = molecular target: T1, neutrophil elastase (NE) (Homo sapiens, UniProt P08246); test: Neutrophil elastase activity assay; assay type: biochemical; conditions: in vitro; (MeOSuc)-AAPV-(pNA) 160 μM, 3 hours, 37° C., and additional assays
T1 construct: purchased SIGMA-ALDRICH
T1 sequence (P08246 30-267): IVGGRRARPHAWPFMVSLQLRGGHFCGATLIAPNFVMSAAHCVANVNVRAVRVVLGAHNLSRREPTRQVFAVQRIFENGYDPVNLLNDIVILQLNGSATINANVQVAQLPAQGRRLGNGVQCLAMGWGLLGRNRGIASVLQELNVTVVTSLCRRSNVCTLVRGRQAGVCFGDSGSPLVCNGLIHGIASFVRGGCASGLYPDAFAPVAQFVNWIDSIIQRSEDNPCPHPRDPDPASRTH
Method: FIG. 12B depicts NE enzyme activity that was examined by cleavage of the synthetic substrate (MeOSuc)-AAPV-(pNA) to (MeOSuc)-AAPV and (pNA) as products detected by liquid chromatography and chromatogram peak identification by mass spectroscopy. (MeOSuc)-AAPV-(pNA) (160 μm) was incubated with NE (2 mU), sivelestat (160 μm), or NE and sivelestat (left panel) or with NE (2 mU), nNIF ([…]), or NE and nNIF (right panel) for 3 hours at 37° C. Chromatograms are offset on the X and Y axes for ease of comparison. In the presence of NE alone, the (MeOSvc)-AAPV-(pNA) peak was almost completely eliminated and (MeOSvc)-AAPV and (pNA) peaks were generated. […] In contrast, it was not inhibited by nNIF.
Synthetic fluorogenic substrate of NE, (MeOSuc)-AAPV-(pNA) (160 μM), was incubated with bioactive NE (500 nM)±the NE inhibitor, sivelestat (160 μM) or nNIF (50 nM), for 3 hours at 37° C. The reactions were quenched with 5% glacial acetic acid and centrifuged at 14,000 rpm for 5 minutes. Chromatograms were obtained using an AGILENT™ 1100 Series HPLC and a PHENOMENEX® 5 μm C18 LUNA® column (100 Å, 4.6×150 mm) over a 30 minute 10% to 90% B gradient (Buffer A 0.1% TFA in H2O, Buffer B 0.1% TFA in ACN). Mass spectra were obtained for secondary validation of the reaction products using an API® 3500 triple quadrupole mass spectrometer. Chromatograms were offset on both the X and Y axes (by 0.5 minutes and 0.1 A214, respectively) for greater visibility.

previously-formed NETs = test: Post-treatment of previously formed NETs (dismantling); assay type: cell-based, human; conditions: agent added after LPS stimulation; nNIF, CRISPP 1 nM; DNase 3.78 U/mL
Method: FIG. 4A is a series of images depicting neutrophils isolated from venous blood of healthy adults that were incubated in medium alone (Control) or activated with LPS (100 ng/mL). CRISPP (1 nM) was added at 0, 30, or 60 minutes after LPS, and the presence of NETs was assessed by live cell imaging as in FIG. 1A after an additional 1 hour of incubation (20× magnification; scale bar=100 μm). The images are representative of three separate experiments.
For selected experiments, primary PMNs were pre-incubated with autologous plasma, cord blood plasma, nNIF (0.2-70 nM), CRISPP (0.2-70 nM), nNIF-SCR (1 nM), or CRISPP-SCR (1 nM) for one hour prior to stimulation. After pre-incubation and/or stimulation, PMNs were gently washed with PBS and incubated with a mixture of cell permeable (SYTO® Green, MOLECULAR PROBES®) and impermeable (SYTOX® Orange, MOLECULAR PROBES®) DNA fluorescent dyes. Confocal microscopy was accomplished using a FV1000 IX81 confocal microscope and FLUOVIEW™ software (OLYMPUS™). Both 20× and 60× objectives were used. Z-series images were obtained at a step size of 1 μm over a range of 20 μm for each field. FLUOVIEW™ and ADOBE™ PHOTOSHOP™ CS2 software was used for image processing.

[3] = test system: nuclear histone H3 citrullination; test: Histone H3 citrullination in PMA-activated neutrophils (immunocytochemistry); assay type: cell-based, human; conditions: PMA 20 nM, 15 minutes; peptides 1 nM, Cl-amidine 10 μM
Excerpt: Green fluorescence=citrullinated-histone H3, magenta fluorescence=nuclear DNA (60× magnification; scale bar=20 μm). The right panel depicts Histone H3 citrullination that was quantified using IMAGEJ™ software (mean citrullinated-histone H3 pixel area per cell±SEM) (n=3). One way ANOVA with Tukey's post hoc testing, *P<0.05.
Imaging was accomplished via confocal microscopy using a FV1000 IX81 confocal microscope and FLUOVIEW™ software (OLYMPUS™). Semi-quantitation was accomplished using IMAGEJ™ software (NIH) to determine the average citrullinated histone H3 content per cell.

recombinant PAD4 = molecular target: T2, recombinant PAD4 (Homo sapiens, UniProt Q9UM07); test: Cell-free PAD4 deimination assay; assay type: biochemical; conditions: initial comparison of NRPs
T2 construct: purchased CAYMAN
Method: One way ANOVA with Tukey's post hoc testing, ***P<0.001.
nNIF inhibition of PAD4 activity was determined using a PAD4 inhibitor screening assay kit (CAYMAN™). Briefly, nNIF (1 nM) was incubated with recombinant PAD4 and PAD4 enzyme substrate (2 mM) in PAD4 assay reagent for 30 minutes at 37° C. […] The reaction was stopped with PAD4 Stop Solution and detected using an included ammonia detector assay. Ammonia detector fluorescence was measured at 470 nm following excitation at 405 nm on a SPECTRAMAX™ M5 fluorescence plate reader (MOLECULAR DEVICES™).

T2 sequence (Q9UM07 whole entry): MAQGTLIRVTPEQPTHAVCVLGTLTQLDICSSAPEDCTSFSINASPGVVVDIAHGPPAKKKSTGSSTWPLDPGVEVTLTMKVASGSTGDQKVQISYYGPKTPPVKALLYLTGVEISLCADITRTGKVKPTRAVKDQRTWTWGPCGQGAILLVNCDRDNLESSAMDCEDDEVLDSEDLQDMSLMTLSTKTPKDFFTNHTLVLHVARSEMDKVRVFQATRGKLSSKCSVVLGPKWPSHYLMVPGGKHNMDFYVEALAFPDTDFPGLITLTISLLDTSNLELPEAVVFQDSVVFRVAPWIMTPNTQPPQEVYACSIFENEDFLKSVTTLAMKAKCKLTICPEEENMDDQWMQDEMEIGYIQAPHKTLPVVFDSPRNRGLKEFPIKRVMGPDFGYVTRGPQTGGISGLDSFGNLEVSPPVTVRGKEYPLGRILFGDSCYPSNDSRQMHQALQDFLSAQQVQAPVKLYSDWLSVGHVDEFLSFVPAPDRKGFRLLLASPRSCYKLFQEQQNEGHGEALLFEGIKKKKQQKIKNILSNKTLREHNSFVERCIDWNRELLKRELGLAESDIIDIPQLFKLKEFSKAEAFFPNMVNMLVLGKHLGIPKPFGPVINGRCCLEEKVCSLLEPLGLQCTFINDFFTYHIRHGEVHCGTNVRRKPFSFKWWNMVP

Compound: LNTNKTKMGVQFPKMPFFKQIPVNSLEFV (Scrambled Peptide Control) [nNIF-SCR, scrambled control peptide of nNIF, reference compound]
- NET formation triggered by LPS [1]: does not

Compound: SIPPEVKFNKPFVFLMIEQNTKSPLFMGKWNPTQK (listed as Homo sapiens) [HTRA1-CF, synthesized peptide generated by cleavage of A1AT by HTRA1]
- NET formation (FIG. 14) ([1]; agonist not stated): inhibits NET formation

Compound: recombinant A1AT: active full-length recombinant A1AT from SIGMA-ALDRICH
- NET formation triggered by LPS [1]: did not inhibit NET formation

Compound: CC(C)(C)C(=O)Oc1ccc(S(=O)(=O)Nc2ccccc2C(=O)NCC(=O)O)cc1 [sivelestat, reference compound]
- nuclear decondensation (number of decondensed nuclei) [2]: blocks nuclear decondensation
- NE activity (substrate cleavage) (neutrophil elastase (NE)): inhibited but not eliminated

Compound: DNase [reference compound]
- degradation or dismantling of previously-formed NETs (previously-formed NETs): dismantled

Compound: PMVSVAMMLSENIFKLPEVKSVPTEFFPKFINMKLLPFQI (Scrambled Peptide Control) [A1ATm^358-SCR, scrambled A1ATm^358, reference compound]
- NET formation triggered by LPS [1]: not

Compound: NC(=O)[C@H](CCCN=C(N)CCl)NC(=O)c1ccccc1 [Cl-amidine, reference compound]
- nuclear decondensation (number of decondensed nuclei) [2]: blocked nuclear decondensation
- nuclear histone H3 citrullination [3]: inhibited

Compound: MFLEAIPMSIPPEVKFNKPFVFLMIEQNTKSPLFMLKVVS (listed as Homo sapiens) [A1ATm^358]
- NET formation triggered by LPS [1]: inhibits NET formation, although with lesser potency than nNIF; also recorded: concentration-dependent pattern of inhibition
- relative inhibition of NETosis (order of potency) ([1]; initial comparison of NRPs): nNIF ≈CRISPP>A1ATm^358
- order of potency of inhibition of PAD4 (recombinant PAD4): nNIF ≈CRISPP>A1ATm^358

Compound: alpha-1-antitrypsin [full-length A1AT]
- NET formation triggered by LPS [1]: did not inhibit NET formation
